Measured values from patent US7422848B2, “Hepatitis-B viral variants with reduced susceptibility to nucleoside analogs and uses thereof” (priority 2005, dated 2008).
Entries after “also recorded” stand apart in the source; their conditions may differ.

Tests used:
HBV [1] = assay: Example 3: second patient, antiviral therapy of HBV infection (HBV DNA, ALT, AST); format: in vivo, human; conditions: lamivudine (Zeffix) 100 mg/day; before breakthrough
Description: A person is a patient with HBsAg (+) and Anti-HBe (+).

wild type HBV = assay: HBV replication in transiently transfected Huh7 cell lines (Real-time PCR), wild type HBV; conditions: supernatant at end of 5th day
HBV [2] = conditions: human, in vivo; cited from earlier work
HBV [3] = assay: Published clinical studies of ADF (Perrillo 2004, Peters 2004, Angus 2003, Yang 2003); conditions: ADF added to the therapy; implied from cited studies
HBV [4] = assay: Case study patient: antiviral therapy of chronic HBV infection (HBV DNA, ALT); format: in vivo, human; conditions: patient after clinical breakthrough, IFN 9 MU/TIW 6 months, Hepsera 10 mg/day 14 months
Procedure: HBV DNA levels were measured by using a commercial liquid-hybridization assay (Digene, Maryland, US), with the lower limit of detection of this assay being 5 pg/mL of viral DNA.
Lamuvidine was continued after the development of clinical breakthrough. […] Hepsera™ (Adefovir dipovoxil) 10 mg/day was added to lamivudine monotherapy at 44th month of initial antiviral therapy and 3 months after stopping IFN.
Blood counts and liver-function tests (alanine and aspartate aminotransferases) were done according to routine biochemical procedures (Olympus AU 2700 autoanalyzer, Japan).

[5] = 0.1 μM antiviral, 3 independent experiments
[6] = 1 μM antiviral, 3 independent experiments

Structure (SMILES)	HBV DNA levels following lamivudine treatment (HBV [1])	HBV replication in transiently transfected Huh7 cell lines (Mean log HBV copy number ± standard deviation) (wild type HBV; [5]) [log HBV copy number]	HBV replication in transiently transfected Huh7 cell lines (Mean log HBV copy number ± standard deviation) (wild type HBV; [6]) [log HBV copy number]	Adefovir treated patients revealing the resistance mutation rtN236T (HBV [2])	HBV replication in transiently transfected Huh7 cell lines (Mean log HBV copy number ± standard deviation) (wild type HBV; 10 μM antiviral, n.d. = not detectable)	Patients not achieving a significant reduction in HBV DNA levels (HBV [3])	ALT and HBV replication response when added to ongoing lamivudine (in words) (HBV [4])	ALT and HBV replication response when added to ongoing lamivudine (in words) (HBV [4]; listed as Hepsera™)
Nc1ccn([C@@H]2CS[C@H](CO)O2)c(=O)n1 [3TC, β-L-(−)-2′,3′-dideoxy-3′-thiacytidine]	less than 5 pg/mL	4.1 ± 0.8	2.32 ± 1.62					
Nc1ncnc2c1ncn2CCOCP(=O)(O)O [Adefovir, 9-(2-phosphonyl-methoxyethyl)-adenine]		1.15 ± 1.62	0.32 ± 0.58	1.7-2.5%	no detectable HBV DNA	8-15%		
CC(C)(C)C(=O)OCOP(=O)(COCCn1cnc2c(N)ncnc21)OCOC(=O)C(C)(C)C [adefovir dipivoxil]							neither suppressed HBV replication nor decreased serum ALT levels	neither inhibition of HBV replication nor ALT normalization occurred; also recorded: did not lead to inhibition of HBV replication and ALT normalisation
